Measured values as given in patent publication US10131652B2, “Pyrimidinyloxy benzene derivatives as herbicides” (E. I. DU PONT DE NEMOURS AND COMPANY, priority 2014, dated 2018).

Tests used:
Type in all cases: in vivo
[1] = system: small-flower umbrella sedge (Cyperus difformis); assay: Test C flooded paddy test plant response; conditions: Flood, 250 g ai/ha; scale of 0 to 100 where 0 is no effect and 100 is complete control; 13 to 15 days
Method in brief: (§1)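 Scored visually on a 0–100 scale (100 = complete control) against untreated plants 13 to 15 days after treatment in the greenhouse. Compounds went into paddy water of pots flooded to 3 cm, holding 2-leaf-stage plants.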

[2] = system: ducksalad (Heteranthera limosa); assay: Test C flooded paddy test plant response; conditions: Flood, 250 g ai/ha; scale of 0 to 100 where 0 is no effect and 100 is complete control; 13 to 15 days
Method in brief: as §1

rice (Oryza sativa) = assay: Test C flooded paddy test plant response; conditions: Flood, 250 g ai/ha; scale of 0 to 100 where 0 is no effect and 100 is complete control; 13 to 15 days
Method in brief: as §1

[3] = system: barnyardgrass (Echinochloa crus-galli); assay: Test C flooded paddy test plant response; conditions: Flood, 250 g ai/ha; scale of 0 to 100 where 0 is no effect and 100 is complete control; 13 to 15 days
Method in brief: as §1

[4] = system: galium (catchweed bedstraw, Galium aparine); assay: Test B postemergence plant response
Method in brief: (§2)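 Visual injury rating, 0–100 (0 = no effect, 100 = complete control), vs untreated controls ~10 days after postemergence spray; greenhouse; potted loam soil/sand; plants 2–10 cm, 1–2 leaf stage.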

[5] = system: blackgrass (Alopecurus myosuroides); assay: Test B postemergence plant response
Method in brief: as §2

[6] = system: ragweed (common ragweed, Ambrosia elatior); assay: Test B pre-/postemergence plant response
Method in brief: (§3)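 Steps: plant seeds in loam soil–sand mix; spray soil preemergence, and in parallel spray 2–10 cm one- to two-leaf plants postemergence; hold ~10 days in greenhouse; visually rate injury against untreated controls (0 = no effect, 100 = complete control).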

[7] = system: giant foxtail (Setaria faberii); assay: Test B pre-/postemergence plant response
Method in brief: as §3

corn (Zea mays) = assay: Test B pre-/postemergence plant response
Method in brief: as §3

kochia (Kochia scoparia) = assay: Test B pre-/postemergence plant response
Method in brief: as §3

[8] = system: Italian ryegrass (Lolium multiflorum); assay: Test B pre-/postemergence plant response
Method in brief: as §3

[9] = system: pigweed (Amaranthus retroflexus); assay: Test B pre-/postemergence plant response
Method in brief: as §3

[10] = system: wheat (Triticum aestivum); assay: Test B pre-/postemergence plant response
Method in brief: as §3

[11] = system: barnyardgrass (Echinochloa crus-galli); assay: Test B pre-/postemergence plant response
Method in brief: as §3

[12] = 125 g ai/ha, postemergence, 0 to 100 scale, 0 no effect, 100 complete control
[13] = 31 g ai/ha, Postemergence, 0 to 100 scale, 0 no effect, 100 complete control
[14] = 31 g ai/ha, Preemergence, 0 to 100 scale where 0 is no effect and 100 is complete control
[15] = Preemergence, 125 g ai/ha, 0 to 100 scale (0 no effect, 100 complete control)
[16] = Postemergence, 31 g ai/ha, 0 to 100 scale (0 no effect, 100 complete control)

SMILES: FC(F)(F)C(F)(F)c1cc(-c2ccccc2Oc2ncc(Cl)cn2)no1 [Compound 142]
- Sedge, Umbrella plant response rating [1]: 0
- Ducksalad plant response rating [2]: 0
- Rice plant response rating (rice (Oryza sativa)): 0
- Barnyardgrass plant response rating [3]: 0
- Plant response rating, Galium [4, 12]: 10
- Plant response rating, Blackgrass [5, 13]: 0
- Plant response rating, Blackgrass [5, 12]: 0
- Plant response rating, Ragweed [6, 14]: 0
- Plant response rating, Ragweed [6, 12]: 0
- Ragweed plant response rating [6, 15]: 0
- Plant response rating, Foxtail, Giant [7, 13]: 0
- Plant response rating, Foxtail, Giant [7, 14]: 0
- Plant response rating, Foxtail, Giant [7, 12]: 0
- Foxtail, Giant plant response rating [7, 15]: 20
- Plant response rating, Corn (corn (Zea mays); [13]): 0
- Plant response rating, Corn (corn (Zea mays); [12]): 20
- Plant response rating, Kochia (kochia (Kochia scoparia); [14]): 0
- Plant response rating, Kochia (kochia (Kochia scoparia); [12]): 20
- Kochia plant response rating (kochia (Kochia scoparia); [15]): 0
- Plant response rating, Ryegrass, Italian [8, 14]: 0
- Plant response rating, Ryegrass, Italian [8, 12]: 0
- Ryegrass, Italian plant response rating [8, 15]: 0
- Plant response rating, Pigweed [9, 14]: 0
- Plant response rating, Pigweed [9, 12]: 20
- Pigweed plant response rating [9, 15]: 0
- Plant response rating, Wheat [10, 12]: 0
- Plant response rating, Barnyardgrass [11, 13]: 0
- Plant response rating, Barnyardgrass [11, 14]: 0
- Plant response rating, Barnyardgrass [11, 12]: 0
- Barnyardgrass plant response rating [11, 15]: 0

SMILES: Cn1nc(-c2c(C#N)cccc2Oc2ncc(Cl)cn2)cc1C(F)(F)F [Compound 146]
- Sedge, Umbrella plant response rating [1]: 0
- Ducksalad plant response rating [2]: 0
- Rice plant response rating (rice (Oryza sativa)): 0
- Barnyardgrass plant response rating [3]: 0
- Plant response rating, Galium [4, 12]: 50
- Plant response rating, Galium [4, 16]: 30
- Plant response rating, Blackgrass [5, 12]: 30
- Plant response rating, Blackgrass [5, 16]: 0
- Plant response rating, Ragweed [6, 14]: 0
- Plant response rating, Ragweed [6, 12]: 0
- Plant response rating, Ragweed [6, 16]: 0
- Ragweed plant response rating [6, 15]: 0
- Plant response rating, Foxtail, Giant [7, 14]: 0
- Plant response rating, Foxtail, Giant [7, 12]: 20
- Plant response rating, Foxtail, Giant [7, 16]: 0
- Foxtail, Giant plant response rating [7, 15]: 20
- Plant response rating, Corn (corn (Zea mays); [12]): 0
- Plant response rating, Corn (corn (Zea mays); [16]): 0
- Plant response rating, Kochia (kochia (Kochia scoparia); [14]): 0
- Plant response rating, Kochia (kochia (Kochia scoparia); [12]): 60
- Plant response rating, Kochia (kochia (Kochia scoparia); [16]): 50
- Kochia plant response rating (kochia (Kochia scoparia); [15]): 0
- Plant response rating, Ryegrass, Italian [8, 14]: 0
- Plant response rating, Ryegrass, Italian [8, 12]: 0
- Plant response rating, Ryegrass, Italian [8, 16]: 0
- Ryegrass, Italian plant response rating [8, 15]: 0
- Plant response rating, Pigweed [9, 14]: 0
- Plant response rating, Pigweed [9, 12]: 60
- Plant response rating, Pigweed [9, 16]: 30
- Pigweed plant response rating [9, 15]: 70
- Plant response rating, Wheat [10, 12]: 0
- Plant response rating, Wheat [10, 16]: 0
- Plant response rating, Barnyardgrass [11, 14]: 0
- Plant response rating, Barnyardgrass [11, 12]: 20
- Plant response rating, Barnyardgrass [11, 16]: 0
- Barnyardgrass plant response rating [11, 15]: 30

SMILES: Cn1nc(-c2c(Br)cccc2Oc2ncc(Cl)cn2)cc1C(F)(F)F [Compound 147]
- Sedge, Umbrella plant response rating [1]: 0
- Ducksalad plant response rating [2]: 0
- Rice plant response rating (rice (Oryza sativa)): 0
- Barnyardgrass plant response rating [3]: 0
- Plant response rating, Galium [4, 12]: 0
- Plant response rating, Galium [4, 16]: 0
- Plant response rating, Blackgrass [5, 12]: 0
- Plant response rating, Blackgrass [5, 16]: 0
- Plant response rating, Ragweed [6, 14]: 0
- Plant response rating, Ragweed [6, 12]: 0
- Plant response rating, Ragweed [6, 16]: 0
- Ragweed plant response rating [6, 15]: 0
- Plant response rating, Foxtail, Giant [7, 14]: 0
- Plant response rating, Foxtail, Giant [7, 12]: 0
- Plant response rating, Foxtail, Giant [7, 16]: 0
- Foxtail, Giant plant response rating [7, 15]: 0
- Plant response rating, Corn (corn (Zea mays); [12]): 0
- Plant response rating, Corn (corn (Zea mays); [16]): 0
- Plant response rating, Kochia (kochia (Kochia scoparia); [14]): 0
- Plant response rating, Kochia (kochia (Kochia scoparia); [12]): 0
- Plant response rating, Kochia (kochia (Kochia scoparia); [16]): 0
- Kochia plant response rating (kochia (Kochia scoparia); [15]): 0
- Plant response rating, Ryegrass, Italian [8, 14]: 0
- Plant response rating, Ryegrass, Italian [8, 12]: 0
- Plant response rating, Ryegrass, Italian [8, 16]: 0
- Ryegrass, Italian plant response rating [8, 15]: 0
- Plant response rating, Pigweed [9, 14]: 0
- Plant response rating, Pigweed [9, 12]: 0
- Plant response rating, Pigweed [9, 16]: 0
- Pigweed plant response rating [9, 15]: 0
- Plant response rating, Wheat [10, 12]: 0
- Plant response rating, Wheat [10, 16]: 0
- Plant response rating, Barnyardgrass [11, 14]: 0
- Plant response rating, Barnyardgrass [11, 12]: 0
- Plant response rating, Barnyardgrass [11, 16]: 0
- Barnyardgrass plant response rating [11, 15]: 0

SMILES: CC(=O)c1cc(-c2ccccc2Oc2ncc(Br)cn2)no1 [Compound 150]
- Sedge, Umbrella plant response rating [1]: 0
- Ducksalad plant response rating [2]: 0
- Rice plant response rating (rice (Oryza sativa)): 0
- Barnyardgrass plant response rating [3]: 0
- Plant response rating, Galium [4, 12]: 10
- Plant response rating, Galium [4, 16]: 0
- Plant response rating, Blackgrass [5, 12]: 10
- Plant response rating, Blackgrass [5, 16]: 0
- Plant response rating, Ragweed [6, 14]: 0
- Plant response rating, Ragweed [6, 12]: 0
- Plant response rating, Ragweed [6, 16]: 0
- Ragweed plant response rating [6, 15]: 0
- Plant response rating, Foxtail, Giant [7, 14]: 0
- Plant response rating, Foxtail, Giant [7, 12]: 10
- Plant response rating, Foxtail, Giant [7, 16]: 0
- Foxtail, Giant plant response rating [7, 15]: 20
- Plant response rating, Corn (corn (Zea mays); [12]): 10
- Plant response rating, Corn (corn (Zea mays); [16]): 0
- Plant response rating, Kochia (kochia (Kochia scoparia); [14]): 0
- Plant response rating, Kochia (kochia (Kochia scoparia); [12]): 0
- Plant response rating, Kochia (kochia (Kochia scoparia); [16]): 0
- Kochia plant response rating (kochia (Kochia scoparia); [15]): 0
- Plant response rating, Ryegrass, Italian [8, 14]: 0
- Plant response rating, Ryegrass, Italian [8, 12]: 0
- Plant response rating, Ryegrass, Italian [8, 16]: 0
- Ryegrass, Italian plant response rating [8, 15]: 0
- Plant response rating, Pigweed [9, 14]: 0
- Plant response rating, Pigweed [9, 12]: 20
- Plant response rating, Pigweed [9, 16]: 10
- Pigweed plant response rating [9, 15]: 20
- Plant response rating, Wheat [10, 12]: 0
- Plant response rating, Wheat [10, 16]: 0
- Plant response rating, Barnyardgrass [11, 14]: 0
- Plant response rating, Barnyardgrass [11, 12]: 20
- Plant response rating, Barnyardgrass [11, 16]: 0
- Barnyardgrass plant response rating [11, 15]: 20
